Data from patent US6593299B1, “Compositions and methods for controlling pests” (priority 1999, dated 2003).
Ends that are not written are not given here.

Experiments:
[1] = tested on: trypsin biosynthesis in the midgut of female Aedes aegypti; test: NPF injected into blood-fed whole female mosquitoes, midgut trypsin biosynthesis; assay type: in vivo; details: whole blood-fed females, injected 0.25 μl at 10^−6 M, midguts assayed 30 hours later
Procedure: To determine whether NPF I and II affect trypsin biosynthesis in the midgut of female Aedes aegypti, females were fed a blood meal and immediately injected with 0.25 μl of the peptide at concentrations of 2.5 μg to 12.5 pg and 30 hours later the midguts were removed and assayed for trypsin biosynthesis (Borovsky et al., 1990 “Mosquito Oostatic Factor: A Novel Decapeptide Modulating Trypsin-Like Enzyme Biosynthesis in the Midgut” FASEB J. 4:3015-3020; Borovsky et al. 1993 “Mass Spectrometry and Characterization of Aedes aegypti Trypsin Modulating Oostatic Factor (TMOF) and its Analog” Insect Biochem. Molec. Biol. 23:703-712). Each experiment was repeated 3 times (5 females per group) and the results are expressed as % inhibition of trypsin biosynthesis±S.E.M. (FIG. 1).

[2] = biological target: TMOF receptor (mosquito gut receptor) (Aedes aegypti); test: cell-based or functional assay
[3] = tested on: Aedes aegypti larvae; test: Feeding TMOF and analog peptides to mosquito larvae (LD50); assay type: in vivo; details: newly hatched larvae on autoclaved yeast 1 mg/ml, peptide 0 to 5.0 mg/ml, microtiter plates, 7 days
From the text: TMOF can traverse the gut epithelium, enter the hemolymph and bind a gut receptor (Borovsky, D. and F. Mahmood (1995) “Feeding the mosquito Aedes aegypti with TMOF and its analogs; effect on trypsin biosynthesis and egg development,” Regulatory Peptides 57:273-281.; Borovsky et al. (1994) “Characterization and localization of mosquito-gut receptors for trypsin modulating oostatic factor using complementary peptide immunochemistry”FASEB J. 8:350-355.). This characteristic permits the testing of TMOF and its analogues by feeding them to mosquito and other pest larvae. To find out if truncated TMOF peptides have an effect on larval growth and development, a series of peptides were synthesized and tested by feeding them to mosquito larvae at concentrations of 0 to 5.0 mg/ml (Table 2). Individual, newly hatched Aedes aegypti larvae were maintained in separate microtiter plate wells on a diet of autoclaved yeast (1 mg/ml). The diet was supplemented with TMOF peptides (Table 2). An identical number of larvae maintained on yeast served as a control. […] All control groups survived and larval growth and development was normal. Since larvae swallow only a small portion of the yeast particles adsorbed the peptides, it is assumed that approximately 1 to 20 ng are taken orally at the high concentrations.

[4] = tested on: fourth instar Heliothis virescens; test: Feeding TMOF analogs to fourth instar H. virescens: larval weight; assay type: in vivo; details: fourth instar larvae; for Weight Gain: 0.8 mg of analogue, 5 days; for Weight mg ± S.E.M. End: synthetic food and 0.8 mg of analogue, after 5 days; for Weight mg ± S.E.M. Start: weight before feeding (baseline)
Procedure: (§1) Several analogues were chosen and were fed to fourth instar Heliothis virescens for seven (7) days and to first instars for fourteen (14) days (Tables 3 and 4). In both cases a reduction in weight gain and trypsin inhibition was noted (Tables 3 and 4).
(§2) Individual first instar and fourth instar larvae of H. virescens were maintained in separate plastic cups and were fed on artificial diet blocks on which different concentrations of TMOF (0 to 1.6 mg) were adsorbed. Larvae were fed for 5 to 14 days and larval weight and trypsin activity were measured at the end of the experimental periods. […] When first instar larvae were fed for 14 days, an 18% and 26% reduction in weight was observed when analogues 15 and 16 were used (Table 4).
Fourth instar larvae were weighed and fed on synthetic food and 0.8 mg of TMOF analogues for 5 days. […]. Results are average of 3 to 10 experiments S.E.M.

[5] = tested on: TTLE biosynthesis; test: Feeding TMOF analogs to fourth instar H. virescens: gut trypsin (TTLE) biosynthesis by [3H]DFP; assay type: in vivo, Heliothis virescens; design: Trypsin: unit not given here; details: fourth instar larvae, 0.8 mg of analogue, 5 days; for Trypsin: guts incubated with [3H]DFP; for Inhibition (trypsin): versus control
[6] = tested on: first instar Heliothis virescens; test: Feeding first instar H. virescens on TMOF analogs for 14 days; assay type: in vivo; design: Weight Reduction ± S.E.M.: concentration or dose not given beside the values; details: first instar larvae fed 14 days; for Weight Reduction ± S.E.M.: versus control
Procedure: as §1, §2

Row | Substance | % inhibition of trypsin biosynthesis [1] [%] | inhibition of trypsin biosynthesis (ligated abdomens of blood-fed female Aedes aegypti, 30 h after injection) (% inhibition at 10^-6 M) [2] | LD50 + S.E.M. [3] [mM] | Weight Gain [4] [mg] | Weight mg ± S.E.M. End [4] [mg] | Weight mg ± S.E.M. Start [4] [mg] | Trypsin [5] | Inhibition (trypsin) [5] [%] | Number of Dead Larvae [6] | Weight ± S.E.M. [6] [mg] | Weight Reduction ± S.E.M. [6] [%]
1 | Ala-Pro-Ser-Arg-Leu-Arg-Phe-amide (APSRLRF-NH2) [NPF II] | 35 | – | – | – | – | – | – | – | – | – | –
2 | NPF I (Ala-Arg-Gly-Pro-Gln-Leu-Arg-Leu-Arg-Phe-amide) (peptide) | – | 54 | – | – | – | – | – | – | – | – | –
3 | YDAAP [15. YDAAP, YDAAP] | – | – | 1.0 ± 0.18 | 179 | 217 ± 9.5 | 38.2 ± 1.3 | 2.1 ± 0.2 | 17 ± 1.6 | 0 | 133 ± 7 | 18 ± 1
4 | YDFAP [14. YDFAP, YDFAP] | – | – | 0.74 ± 0.13 | 164 | 201 ± 12 | 37 ± 1.3 | 2.1 ± 0.2 | 19 ± 1.5 | 1 | 121 ± 7 | 26 ± 1.5
5 | YDPGP [16. YDPGP, YDPGP] | – | – | 1.1 ± 0.18 | 163.1 | 199.8 ± 11 | 31.7 ± 1.6 | 2.1 ± 0.1 | 17 ± 1 | 2 | 153 ± 10 | 6 ± 0.4
6 | YSPAP [18. YSPAP, YSPAP] | – | – | 1.4 ± 0.03 | 151 | 188 ± 10.6 | 30.6 ± 1.2 | 2.0 ± 0.2 | 19 ± 2 | 0 | 168 ± 11 | 0
